# Results as given in patent publication US20060069132A1, “Azolecarboxamide herbicides” (priority 2004, published 2006).
# Columns and labels:
# wild oat = assay: Test B postemergence herbicide test; assay type: in vivo, Avena fatua; conditions: for Plant response rating, Oat, Wild: visual rating after 13 to 15 days
# How it was run: (§1)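 Postemergence plants were sprayed with formulated test chemicals at 2 to 18 cm height (1- to 4-leaf stage); paddy species were grown to the 2-leaf stage. After 13 to 15 days in a greenhouse, injury was rated visually against untreated controls on a 0–100 scale (0 = no effect, 100 = complete control).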
# pigweed = assay: Test B pre-/postemergence herbicide test; assay type: in vivo, Amaranthus retroflexus
# How it was run: (§2)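 Evaluation is visual, comparing treated with control plants on a scale where 0 means no effect and 100 means full control. Treatments were preemergence, or postemergence on seedlings 2–18 cm tall, and held 13–15 days in the greenhouse.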
# ducksalad = assay: Test B flooded paddy test; assay type: in vivo, Heteranthera limosa; conditions: 1000 g ai/ha, scale 0 to 100 (0 no effect, 100 complete control)
# How it was run: as §1
# giant foxtail = assay: Test B pre-/postemergence herbicide test; assay type: in vivo, Setaria faberi
# How it was run: as §2
# corn = assay: Test B pre-/postemergence herbicide test; assay type: in vivo, Zea mays
# How it was run: as §2
# rice = assay: Test B flooded paddy test; assay type: in vivo, Oryza sativa; conditions: 1000 g ai/ha, scale 0 to 100 (0 no effect, 100 complete control)
# How it was run: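 Each value is a visual 0–100 response rating taken against controls 13 to 15 days after treatment in the greenhouse. Plants received formulated chemical postemergence at the 1- to 4-leaf stage or, in flooded paddy, at the 2-leaf stage.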
# barnyardgrass [1] = assay: Test B pre-/postemergence herbicide test; assay type: in vivo, Echinochloa crus-galli
# How it was run: (§3)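 Seeds were planted and treated preemergence with compounds formulated in a non-phytotoxic solvent mixture containing surfactant, while plants at the 1- to 4-leaf stage (2 to 18 cm) received postemergence sprays. Flooded paddy plants were grown to the 2-leaf stage. After 13 to 15 days in a greenhouse, injury was visually rated 0–100 against untreated controls.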
# velvetleaf = assay: Test B pre-/postemergence herbicide test; assay type: in vivo, Abutilon theophrasti
# How it was run: as §2
# barnyardgrass [2] = assay: Test B flooded paddy test; assay type: in vivo, Echinochloa crus-galli; conditions: 1000 g ai/ha, scale 0 to 100 (0 no effect, 100 complete control)
# How it was run: as §1
# [3] = system: small flower umbrella sedge; assay: Test B flooded paddy test; assay type: in vivo, Cyperus difformis; conditions: 1000 g ai/ha, scale 0 to 100 (0 no effect, 100 complete control)
# How it was run: as §1
# wheat = assay: Test B postemergence herbicide test; assay type: in vivo, Triticum aestivum; design: key to Wheat plant response rating: 0 = no effect, 100 = complete control; conditions: for Plant response rating, Wheat: visual rating after 13 to 15 days
# How it was run: as §1
# large crabgrass = assay: Test B pre-/postemergence herbicide test; assay type: in vivo, Digitaria sanguinalis
# How it was run: as §2
# morningglory = assay: Test B pre-/postemergence herbicide test; assay type: in vivo, Ipomoea coccinea
# How it was run: as §3
# Surinam grass = assay: Test B pre-/postemergence herbicide test; assay type: in vivo, Urochloa decumbens
# How it was run: as §2
# blackgrass = assay: Test B postemergence herbicide test; assay type: in vivo, Alopecurus myosuroides; conditions: for Plant response rating, Blackgrass: visual rating after 13 to 15 days
# How it was run: as §1
# [4] = Postemergence, 500 g ai/ha, scale 0 (no effect) to 100 (complete control)
# [5] = postemergence, 125 g ai/ha, visual rating, scale 0 (no effect) to 100 (complete control)
# [6] = 500 g ai/ha, visual rating 0-100, 0 no effect, 100 complete control, preemergence
# [7] = Postemergence, 500 g ai/ha, visual rating after 13 to 15 days, scale 0 (no effect) to 100 (complete control)
# [8] = preemergence, 125 g ai/ha, 0 to 100 scale, 0 is no effect, 100 is complete control
# [9] = 125 g ai/ha, visual rating, scale 0 (no effect) to 100 (complete control), postemergence
# [10] = 125 g ai/ha, 0 is no effect, 100 is complete control, preemergence
# [11] = postemergence, 500 g ai/ha, scale 0 to 100, 0 is no effect, 100 is complete control
# [12] = 500 g ai/ha, scale 0 to 100, 0 no effect, 100 complete control, preemergence
# [13] = postemergence, 125 g ai/ha, scale 0 to 100
compound,measurement,setting,value
CCC(=NO)c1cccc(NC(=O)c2cc(C(C)(C)C)nn2C)c1 [Compound 118],"Plant response rating, Oat, Wild",wild oat; [4],20
same,"Oat, Wild plant response rating",wild oat; [5],20
same,"Plant response rating, Pigweed",pigweed; [6],90
same,"Plant response rating, Pigweed",pigweed; [7],100
same,Pigweed plant response rating,pigweed; [5],60
same,"Plant response rating, Pigweed",pigweed; [8],60
same,Ducksalad plant response rating,"ducksalad; visual rating, 13 to 15 days",80
same,"Plant response rating, Foxtail, Giant",giant foxtail; [6],70
same,"Plant response rating, Foxtail, Giant",giant foxtail; [7],20
same,"Foxtail, Giant plant response rating",giant foxtail; [5],10
same,"Plant response rating, Foxtail, Giant",giant foxtail; [8],10
same,"Plant response rating, Corn",corn; [6],10
same,"Plant response rating, Corn",corn; [7],40
same,Corn plant response rating,corn; [5],20
same,"Plant response rating, Corn",corn; [8],0
same,Rice plant response rating,"rice; visual rating, 13 to 15 days",80
same,"Plant response rating, Barnyardgrass",barnyardgrass [1]; [6],90
same,"Plant response rating, Barnyardgrass",barnyardgrass [1]; [7],30
same,Barnyardgrass plant response rating,barnyardgrass [1]; [5],10
same,"Plant response rating, Barnyardgrass",barnyardgrass [1]; [8],10
same,"Plant response rating, Velvetleaf",velvetleaf; [6],10
same,"Plant response rating, Velvetleaf",velvetleaf; [7],40
same,Velvetleaf plant response rating,velvetleaf; [5],20
same,"Plant response rating, Velvetleaf",velvetleaf; [8],0
same,Barnyardgrass plant response rating,"barnyardgrass [2]; visual rating, 13 to 15 days",50
same,"Sedge, Umbrella plant response rating","[3]; visual rating, 13 to 15 days",80
same,"Plant response rating, Wheat",wheat; [4],10
same,Wheat plant response rating,wheat; [5],10
same,"Plant response rating, Crabgrass, Large",large crabgrass; [6],100
same,"Plant response rating, Crabgrass, Large",large crabgrass; [7],30
same,"Crabgrass, Large plant response rating",large crabgrass; [5],20
same,"Plant response rating, Crabgrass, Large",large crabgrass; [8],90
same,"Plant response rating, Morningglory",morningglory; [6],60
same,"Plant response rating, Morningglory",morningglory; [7],70
same,Morningglory plant response rating,morningglory; [5],20
same,"Plant response rating, Morningglory",morningglory; [8],10
same,"Plant response rating, Surinam Grass",Surinam grass; [6],50
same,"Plant response rating, Surinam Grass",Surinam grass; [7],40
same,Surinam Grass plant response rating,Surinam grass; [5],40
same,"Plant response rating, Surinam Grass",Surinam grass; [8],10
same,"Plant response rating, Blackgrass",blackgrass; [4],10
same,Blackgrass plant response rating,blackgrass; [5],0
CC(=NO)c1cccc(NC(=O)c2cc(C(C)(C)C)nn2C)c1 [Compound 102],"Plant response rating, Oat, Wild",wild oat; [4],40
same,"Oat, Wild plant response rating",wild oat; [5],20
same,"Plant response rating, Pigweed",pigweed; [6],100
same,"Plant response rating, Pigweed",pigweed; [7],100
same,Pigweed plant response rating,pigweed; [5],80
same,"Plant response rating, Pigweed",pigweed; [8],90
same,Ducksalad plant response rating,"ducksalad; visual rating, 13 to 15 days",90
same,"Plant response rating, Foxtail, Giant",giant foxtail; [6],80
same,"Plant response rating, Foxtail, Giant",giant foxtail; [7],30
same,"Foxtail, Giant plant response rating",giant foxtail; [5],10
same,"Plant response rating, Foxtail, Giant",giant foxtail; [8],30
same,"Plant response rating, Corn",corn; [6],50
same,"Plant response rating, Corn",corn; [7],40
same,Corn plant response rating,corn; [5],20
same,"Plant response rating, Corn",corn; [8],0
same,Rice plant response rating,"rice; visual rating, 13 to 15 days",50
same,"Plant response rating, Barnyardgrass",barnyardgrass [1]; [6],90
same,"Plant response rating, Barnyardgrass",barnyardgrass [1]; [7],40
same,Barnyardgrass plant response rating,barnyardgrass [1]; [5],0
same,"Plant response rating, Barnyardgrass",barnyardgrass [1]; [8],80
same,"Plant response rating, Velvetleaf",velvetleaf; [6],70
same,"Plant response rating, Velvetleaf",velvetleaf; [7],20
same,Velvetleaf plant response rating,velvetleaf; [5],0
same,"Plant response rating, Velvetleaf",velvetleaf; [8],0
same,Barnyardgrass plant response rating,"barnyardgrass [2]; visual rating, 13 to 15 days",80
same,"Sedge, Umbrella plant response rating","[3]; visual rating, 13 to 15 days",100
same,"Plant response rating, Wheat",wheat; [4],20
same,Wheat plant response rating,wheat; [5],0
same,"Plant response rating, Crabgrass, Large",large crabgrass; [6],100
same,"Plant response rating, Crabgrass, Large",large crabgrass; [7],70
same,"Crabgrass, Large plant response rating",large crabgrass; [5],10
same,"Plant response rating, Crabgrass, Large",large crabgrass; [8],100
same,"Plant response rating, Morningglory",morningglory; [6],100
same,"Plant response rating, Morningglory",morningglory; [7],30
same,Morningglory plant response rating,morningglory; [5],10
same,"Plant response rating, Morningglory",morningglory; [8],50
same,"Plant response rating, Surinam Grass",Surinam grass; [6],40
same,"Plant response rating, Surinam Grass",Surinam grass; [7],100
same,Surinam Grass plant response rating,Surinam grass; [5],70
same,"Plant response rating, Surinam Grass",Surinam grass; [8],20
same,"Plant response rating, Blackgrass",blackgrass; [4],20
same,Blackgrass plant response rating,blackgrass; [5],0
CCNC(=O)c1cccc(NC(=O)c2nn(C(C)(C)CC)nc2CC)c1 [Compound 376],"Oat, Wild plant response rating",wild oat; [9],20
same,"Oat, Wild plant response rating",wild oat; [4],40
same,"Plant response rating (0 to 100 scale), Pigweed",pigweed; [10],100
same,Pigweed plant response rating,pigweed; [9],70
same,Pigweed plant response rating,pigweed; [4],90
same,Ducksalad plant response rating,ducksalad,90
same,"Plant response rating (0 to 100 scale), Foxtail, Giant",giant foxtail; [10],70
same,"Foxtail, Giant plant response rating",giant foxtail; [9],30
same,"Foxtail, Giant plant response rating",giant foxtail; [11],60
same,"Plant response rating (0 to 100 scale), Corn",corn; [10],40
same,Corn plant response rating,corn; [9],10
same,Corn plant response rating,corn; [11],30
same,Rice plant response rating,rice,60
same,"Plant response rating (0 to 100 scale), Barnyardgrass",barnyardgrass [1]; [10],80
same,Barnyardgrass plant response rating,barnyardgrass [1]; [9],10
same,Barnyardgrass plant response rating,barnyardgrass [1]; [11],40
same,"Plant response rating (0 to 100 scale), Velvetleaf",velvetleaf; [10],10
same,Velvetleaf plant response rating,velvetleaf; [9],20
same,Velvetleaf plant response rating,velvetleaf; [4],40
same,Barnyardgrass plant response rating,barnyardgrass [2],70
same,"Sedge, Umbrella plant response rating",[3],80
same,Wheat plant response rating,wheat; [9],10
same,Wheat plant response rating,wheat; [12],90
same,Wheat plant response rating,wheat; [4],20
same,"Plant response rating (0 to 100 scale), Crabgrass, Large",large crabgrass; [10],80
same,"Crabgrass, Large plant response rating",large crabgrass; [9],10
same,"Crabgrass, Large plant response rating",large crabgrass; [11],50
same,"Plant response rating (0 to 100 scale), Morningglory",morningglory; [10],10
same,Morningglory plant response rating,morningglory; [9],30
same,Morningglory plant response rating,morningglory; [4],60
same,"Plant response rating (0 to 100 scale), Surinam Grass",Surinam grass; [10],40
same,Surinam Grass plant response rating,Surinam grass; [9],10
same,Surinam Grass plant response rating,Surinam grass; [4],20
same,Blackgrass plant response rating,blackgrass; [9],10
same,Blackgrass plant response rating,blackgrass; [11],40
C=CCOc1cccc(NC(=O)c2cc(C(C)(C)C)nn2CC)c1 [Compound 412],"Oat, Wild plant response rating",wild oat; [4],40
same,"Oat, Wild plant response rating",wild oat; [13],30
same,"Plant response rating (0 to 100 scale), Pigweed",pigweed; [10],50
same,Pigweed plant response rating,pigweed; [4],100
same,Pigweed plant response rating,pigweed; [13],90
same,Ducksalad plant response rating,ducksalad,80
same,"Plant response rating (0 to 100 scale), Foxtail, Giant",giant foxtail; [10],30
same,"Foxtail, Giant plant response rating",giant foxtail; [4],30
same,"Foxtail, Giant plant response rating",giant foxtail; [13],30
same,"Plant response rating (0 to 100 scale), Corn",corn; [10],0
same,Corn plant response rating,corn; [4],0
same,Corn plant response rating,corn; [13],0
same,Rice plant response rating,rice,40
same,"Plant response rating (0 to 100 scale), Barnyardgrass",barnyardgrass [1]; [10],40
same,Barnyardgrass plant response rating,"barnyardgrass [1]; Postemergence, 125 g ai/ha, scale 0 (no effect) to 100 (complete control)",0
same,Barnyardgrass plant response rating,barnyardgrass [1]; [4],0
same,"Plant response rating (0 to 100 scale), Velvetleaf",velvetleaf; [10],0
same,Velvetleaf plant response rating,velvetleaf; [4],10
same,Velvetleaf plant response rating,velvetleaf; [13],0
same,Barnyardgrass plant response rating,barnyardgrass [2],40
same,"Sedge, Umbrella plant response rating",[3],90
same,Wheat plant response rating,wheat; [12],20
same,Wheat plant response rating,wheat; [4],20
same,Wheat plant response rating,wheat; [13],10
same,"Plant response rating (0 to 100 scale), Crabgrass, Large",large crabgrass; [10],50
same,"Crabgrass, Large plant response rating",large crabgrass; [4],30
same,"Crabgrass, Large plant response rating",large crabgrass; [13],0
same,"Plant response rating (0 to 100 scale), Morningglory",morningglory; [10],0
same,Morningglory plant response rating,morningglory; [4],0
same,Morningglory plant response rating,morningglory; [13],0
same,"Plant response rating (0 to 100 scale), Surinam Grass",Surinam grass; [10],0
same,Surinam Grass plant response rating,Surinam grass; [4],30
same,Surinam Grass plant response rating,Surinam grass; [13],0
same,Blackgrass plant response rating,blackgrass; [4],40
same,Blackgrass plant response rating,blackgrass; [13],40
